From US4145554A, “3-Nitropyrazole derivatives” (Eli Lilly and Company, priority 1977, dated 1979)
Converted amounts (≈) assume the structure as drawn. Read-outs that look alike come from different tables or passages of the source.

Legend:
E. amylovora = test: Fire blight of apple, induced infection of McIntosh apple seedlings; assay type: in vivo; conditions: 6 days, scale 1 (symptoms in main stem) to 4 (complete control)
Description: A typical test of one of our compounds against an induced E. amylovora infection of McIntosh apple seedlings will be reported. The compound, [2-(4-carbamoyl-3-nitropyrazol-1-yl)ethyl] phenyl carbonate, was sprayed on the seedlings as an aqueous dispersion at the concentrations shown below. Four replicate trees were used per treatment. After the spray had dried, each tree was challenged by punching a hole through the midvein at the tip of one leaf per plant, and placing a drop of an E. amylovora culture in the hole.
After 6 days, the trees were observed, and the control of the infection was rated on the following scale.
1 = disease symptoms in main stem
2 = disease symptoms in petiole
3 = disease symptoms in the leaf only
4 = complete control of disease
The results are shown below as the mean disease control rating.

[1] = tested on: mycoplasma which causes aster yellows; test: Aster yellows disease test; assay type: in vivo, aster plants; conditions: 20 days
Description: The following data report a test of an exemplary compound against aster yellows disease. The compound, [2-(4-carbamoyl-3-nitropyrazol-1-yl)ethyl] phenyl carbonate, was applied to aster plants as an aqueous dispersion at concentrations shown below. Two plants were sprayed with each concentration. Each pair of plants was placed in a wire mesh cage, and four leafhoppers infected with the mycoplasma which causes aster yellows were placed in each cage. After 20 days, the plants were observed and disease control was rated as the percent of the plants' surface affected by the disease.

H. meleagridis [2] = test: Blackhead in poultry, chicks; assay type: in vivo
Method: (§1) One- to three-week-old chicks and turkey poults were obtained from homogeneous source flocks and allocated into treatment groups. Some groups were held as infected, untreated controls, and other groups were treated with 3-nitropyrazoles by administering the compounds in the birds' feed. Various concentrations of the pyrazoles were administered to determine the least concentration which protected the birds. A few days after the administration of medicated feed began, all of the birds were challenged by rectally administering a suspension of at least 5,000 H. meleagridis protozoa per chick. The challenge organisms had been originally obtained from infected chickens, and were grown in vitro to provide a supply of organisms for testing.
(§2) The birds were held for about seven days after the challenge was administered, during which time the administration of pyrazole-medicated feed was continued. Then all of the chicks, including the untreated, infected controls, were sacrificed and necropsied. The cecum and the liver of each bird were examined for characteristic H. meleagridis lesions.
(§3) For each compound, the lowest feed concentration which gave an active response is indicated. While feed consumption data were not taken during the tests, the birds ate at such a rate that a feed concentration of 0.02 percent is equivalent to a treatment rate of about 10 mg./kg./day.

Salmonella typhimurium = test: Salmonellosis in chickens, single injection to day-old chicks; assay type: in vivo; conditions: Salmonella enterica, TYPHIMURIUM, 168 h; single injection of 60 mg./kg.; seven days; read-out: Survival (converted)
In short: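 Five day-old chicks per group received one injection of compound at 60 mg./kg., then were challenged next day by subcutaneous S. typhimurium at a dose lethal to most or all untreated controls. Read-out is survivor count, pooled over repeat groups, with untreated challenged controls run in each batch.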

Mycoplasma hyorhinis = test: in vitro tube dilution test (MIC); assay type: cell-based
Description: (§4) Our compound, 1-(2-hydroxyethyl)-3-nitro-4-pyrazolecarboxamide, has been extensively tested in vitro to determine the range of microorganisms against which it is active. The table of data below reports the minimum inhibitory concentration (MIC) at which the compound is effective in controlling a variety of microorganisms in a standard tube dilution test system. The MIC is reported as micrograms of compound per milliliter.
(§5) The other preferred compounds of our invention have also been thoroughly tested in the in vitro tube dilution test.

Pseudomonas sp. = test: in vitro tube dilution test (MIC); assay type: cell-based
Description: as §4, §5

Pasteurella multocida = test: in vitro tube dilution test (MIC); assay type: cell-based; conditions: tube dilution, read-out: MIC
In short: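 Standard tube dilution test; MIC is the lowest compound concentration controlling growth, given in μg/mL.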

[3] = tested on: Mycoplasma gallisepticum 38502; test: in vitro tube dilution test (MIC); assay type: cell-based; conditions: Mycoplasmoides gallisepticum; Mycoplasma gallisepticum 38502, tube dilution
Description: as §5

[4] = tested on: Staphylococcus aureus 3055; test: in vitro tube dilution test (MIC); assay type: cell-based; conditions: Staphylococcus aureus 3055, tube dilution
Description: as §5

Salmonella dublin = test: in vitro tube dilution test (MIC); assay type: cell-based; conditions: Salmonella enterica; Salmonella dublin, tube dilution; read-out: MIC
[5] = tested on: Staphylococcus aureus sp. 1130; test: in vitro tube dilution test (MIC); assay type: cell-based; conditions: read-out: MIC
Vibrio coli 3811 = test: in vitro tube dilution test (MIC); assay type: cell-based; conditions: Campylobacter coli; Vibrio coli 3811, tube dilution; read-out: MIC
Erwinia amylovora = test: Fire blight of pear, in vivo greenhouse test
Method: An in vivo test was conducted against the fire blight organism, Erwinia amylovora. Plants infected with E. amylovora were sprayed with aqueous dispersions containing 100 ppm. and 500 ppm. of the test compounds. […] The compounds are identified below by their compound numbers in the above listing.

Streptococcus pyogenes = test: Tests in mice, Streptococcus pyogenes infection; assay type: in vivo; conditions: S. pyogenes, two subcutaneous doses of 83 mg./kg., 1 and 5 hours
Method: (§6) Groups of laboratory mice were inoculatd with E. coli or with Streptococcus pyogenes. The 3-nitropyrazoles were administered in two different modes to the infected mice. In one group of tests, the compound was administered in two subcutaneous doses of 83 mg./kg. each, given 1 and 5 hours after the mice were inoculated with the organism. The mice were observed, and the results reported below as the number of days the treated mice survived the challenge.
(§7) In the other group of tests, the dose of each compound which allowed 50 percent of the treated mice to survive the challenge was determined. Again, the compound was administered in subcutane divided doses, 1 and 5 hours post-inoculation.

E. coli = test: Tests in mice, E. coli infection; assay type: in vivo
Method: as §6, §7

H. meleagridis [6] = test: Blackhead in poultry, turkeys; assay type: in vivo
Method: as §1, §2, §3

S. typhimurium = test: Salmonella typhimurium in chickens, medicated feed; assay type: in vivo, chicks; conditions: Test C, 200 gm./ton feed; for Avg. Wt.: surviving chicks
avian E. coli = test: Colibacillosis in chickens, medicated feed; assay type: in vivo
Escherichia coli = test: in vitro tube dilution test (MIC); assay type: cell-based; conditions: tube dilution, read-out: MIC
In short: (§8)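 Standard tube dilution test; MIC reported as micrograms of compound per milliliter.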

Mycoplasma synoviae = test: in vitro tube dilution test (MIC); assay type: cell-based; conditions: Mycoplasmopsis synoviae, footnote 1: M. synoviae
In short: as §8

Streptococcus sp. 80 = test: in vitro tube dilution test (MIC); assay type: cell-based; conditions: Streptococcus sp. 80, tube dilution; read-out: MIC
Description: Other compounds of our invention have also been tested in the tube dilution test and shown to have in vitro activity against a number of microorganisms. The table below reports tests of a number of exemplary compounds against exemplary microorganisms. The compounds are identified by their numbers in the listing above. The data are reported as the MIC in micrograms per milliliter against the named exemplary microorganisms.

[7] = tested on: Salmonella heidelburg 1593; test: in vitro tube dilution test (MIC); assay type: cell-based; conditions: Salmonella heidelburg 1593, tube dilution
Description: as §4, §5

Salmonella pullorum Ill. = test: in vitro tube dilution test (MIC); assay type: cell-based; conditions: Salmonella enterica
Description: as §4, §5

[8] = tested on: Salmonella typhimurium 1335; test: in vitro tube dilution test (MIC); assay type: cell-based; conditions: Salmonella enterica; Salmonella typhimurium 1335, tube dilution
Description: as §4, §5

Escherichia coli 0127 = test: in vitro tube dilution test (MIC); assay type: cell-based; conditions: Escherichia coli 0127, tube dilution
Description: as §5

P. multocida [9] = test: Mice infected with P. multocida, compound in drinking water; assay type: in vivo; conditions: 7 days
Method: Some of the 3-nitropyrazoles were also administered to mice infected with P. multocida. Tests were conducted in which the pyrazoles were administered both by injection and in the drinking water.
The table below reports results of tests in which the compound was administered in the water. Groups of 10 standardized white mice were segregated, and each mouse was infected by injecting a broth culture of P. multocida subcutaneously. The administration of the test compounds was begun at the same time the mice were infected by adding a known amount of the test compound to the drinking water of the mice. One group of infected control mice received no treatment. The mice were observed, and the test was concluded at the end of 7 days. The number of mice in each group which survived the P. multocida infection was recorded.

P. multocida [10] = test: Mice infected with P. multocida, compound injected subcutaneously; assay type: in vivo
Method: A second test was conducted in much the same way, except that the 3-nitropyrazole was injected to the treated mice subcutaneously at the same time they were infected with the P. multocida culture.

[11] = Staphylococcus aureus, SP.1130, Staphyloccocus 1130, tube dilution
[12] = 300 gm./ton feed, about 5 weeks old, 10^-2 dilution challenge, first test
[13] = 100 gm./ton, further test, about 5 weeks of age
[14] = 200 gm./ton, further test, about 5 weeks of age

| Structure (SMILES) | responders at 60 mg/kg (Salmonella typhimurium) | MIC (Mycoplasma hyorhinis) | MIC (Pseudomonas sp.) | MIC (Pasteurella multocida) | MIC [3] | MIC [4] | MIC (Salmonella dublin) | MIC [5, 11] | MIC (Vibrio coli 3811) | Percent Control of fire blight (Erwinia amylovora; 100 ppm.) | Percent Control of fire blight (Erwinia amylovora; 500 ppm.) | Survival (S. typhimurium) | Avg. Wt. (S. typhimurium) | E. coli Lesions (avian E. coli; [12]) | Mortality (avian E. coli; [12]) | Wt. (avian E. coli; [12]) | other results |
| --- | --- | --- | --- | --- | --- | --- | --- | --- | --- | --- | --- | --- | --- | --- | --- | --- | --- |
| NC(=O)c1cn(CCOC(=O)Oc2ccccc2)nc1[N+](=O)[O-] [Compound 77, [2-(4-carbamoyl-3-nitropyrazol-1-yl)ethyl] phenyl carbonate] | 80% | – | – | – | – | – | – | – | – | – | – | – | – | – | – | – | mean disease control rating (E. amylovora; 200 ppm.): 2.5; mean disease control rating (E. amylovora; 400 ppm.): 3.5; mean disease control rating (E. amylovora; 600 ppm.): 3.0; mean disease control rating (E. amylovora; 800 ppm.): 3.4; mean disease control rating (E. amylovora; 1000 ppm.): 3.5; mean disease control rating (E. amylovora; 1200 ppm.): 3.5; Percent Infection (percent of plants' surface affected) ([1]; Concentration 200 (unit not given)): 0%; Percent Infection (percent of plants' surface affected) ([1]; Concentration 400 (unit not given)): 25%; Percent Infection (percent of plants' surface affected) ([1]; Concentration 800 (unit not given)): 0%; Active Level (lowest feed concentration which gave an active response) (H. meleagridis [2]): .02% |
| CCOCCn1cc(C(N)=O)c([N+](=O)[O-])n1 [Compound 34, 1-(2-ethoxyethyl)-3-nitro-4-pyrazolecarboxamide] | 40% | 50 µg/mL (≈ 219 µM) | 50 µg/mL (≈ 219 µM) | 25 µg/mL (≈ 110 µM) | 50 µg/mL (≈ 219 µM) | 100 µg/mL (≈ 438 µM) | 25 µg/mL (≈ 110 µM) | 6.25 µg/mL (≈ 27.4 µM) | 50 µg/mL (≈ 219 µM) | 33% | 66% | 25/48 | 62 gm. | 11/30 | 0/30 | 1136 gm. | Days Survived (Streptococcus pyogenes): 5.0 days; ED50 (E. coli; Escherichia coli, sc, subcutaneous, 1 and 5 hours post-inoculation): > 41 mg/kg; Days Survived (E. coli; two subcutaneous doses of 83 mg./kg., 1 and 5 hours): 7.0 days; Active Level (lowest feed concentration which gave an active response) (H. meleagridis [6]): .02% |
| COC(=O)c1cn(CCO)nc1[N+](=O)[O-] [Compound 71, methyl 1-(2-hydroxyethyl)-3-nitro-4-pyrazolecarboxylate] | – | – | – | > 50 µg/mL | – | – | > 50 µg/mL | – | > 50 µg/mL | – | – | – | – | – | – | – | MIC (Escherichia coli): > 50 µg/mL; MIC (Mycoplasma synoviae): 0.39 µg/mL (≈ 1.81 µM); MIC ([5]; Staphylococcus aureus sp. 1130, tube dilution): > 50 µg/mL; MIC (Streptococcus sp. 80): > 50 µg/mL |
| CC(=O)OCCn1cc(C(N)=O)c([N+](=O)[O-])n1 [Compound 80, 2-(4-carbamoyl-3-nitropyrazol-1-yl)ethyl acetate] | 70% | 50 µg/mL | 25 µg/mL | 25 µg/mL | 25 µg/mL | 10 µg/mL | 12.5 µg/mL | 3.12 µg/mL | 12.5 µg/mL | 33% | 50% | 29/48 | 67 gm. | 9/30 | 1/30 | 1139 gm. | MIC [7]: 12.5 µg/mL; MIC (Salmonella pullorum Ill.): < 1.56 µg/mL; MIC [8]: 12.5 µg/mL; MIC (Escherichia coli 0127): 100 µg/mL; Survival (P. multocida [9]; 0.1 gm./gal. in drinking water): 9/10; Survival (P. multocida [9]; 0.2 gm./gal. in drinking water): 6/10; Survival (P. multocida [10]; 2.5 mg./kg. subcutaneous): 4/10; Survival (P. multocida [10]; 5.0 mg./kg. subcutaneous): 3/10; Survival (P. multocida [10]; 10.0 mg./kg. subcutaneous): 8/10; Survival (P. multocida [10]; 25.0 mg./kg. subcutaneous): 9/10; Avg. Wt. (avian E. coli; [13]): 1219 gm.; E. coli Lesions (avian E. coli; [13]): 38/40; Mortality (avian E. coli; [13]): 10/40; Avg. Wt. (avian E. coli; [14]): 1308 gm.; E. coli Lesions (avian E. coli; [14]): 31/40; Mortality (avian E. coli; [14]): 6/40 |
